Data on eight compounds can be found in PubChem BioAssay (NCI).

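Step 1: Grow cells in 96-well plates. Step 2: Expose to compound for 48 hours at 5 concentrations. Step 3: Interpolate endpoints linearly; if unreached, use highest concentration. Abbreviation: GI50, concentration required for 50% inhibition of growth. TGI marks complete inhibition of growth.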 Some results are limits rather than exact numbers.

Common to all, as to experiment: NCI anticancer screen, dose series, 48 h
The subject of test [1] is 786-0 renal.
The test system of test [2] is HCT-15 colon.
The test system of test [3] is HL-60(TB) leukemia.
Test [4] has as its system HOP-92 NSCLC.
Test [5] concerns IGROV1 ovarian.
Test [6] has as its system OVCAR-4 ovarian.
For test [7], the system named is SF-539 CNS.
Test [8] relates to TK-10 renal.
The test system of test [9] is U251 CNS.
The test system of test [10] is EKVX NSCLC.

Consider `CCc1c[nH]c2ncnc(N3CC[C@](N)(CNC(=O)c4ccc(F)cc4F)C3)c12`, for which the GI50 in [1] was 0.479 µM; in test [2], 15.5 µM; in test [3], 56.2 µM; in test [4], 0.23 µM; in test [5], 0.207 µM; in [6] it was 53.1 µM. Besides, the GI50 is 0.381 µM in [7], 1.27 µM in test [8] and 0.76 µM in [9]. In addition, the TGI in test [1] is 19.8 µM; in test [2], more than 100 µM; in test [3], more than 100 µM; in test [4], 7.57 µM; in test [5], 6.67 µM; in test [6] it was more than 100 µM. Also, the TGI was 29.4 µM in test [7], 50.4 µM in test [8] and more than 100 µM in [9].
Take `Cn1c(=O)c(Oc2ccc(F)cc2F)cc2cnc(NC3CCC(O)CC3)nc21` (stereo not drawn): the GI50 in test [1] is more than 25 µM; in test [2], more than 25 µM; in [3] it was more than 25 µM; in [4], 0.779 µM; in test [5] it was more than 25 µM; in [6], more than 25 µM. The GI50 in test [7] was more than 25 µM; in test [8], 24.6 µM; in test [9] it was more than 25 µM. Besides, the TGI in test [1] was more than 25 µM; in [2] it was more than 25 µM; in test [3], more than 25 µM; in test [4], 19.3 µM; in test [5] it was more than 25 µM; in [6], more than 25 µM. Moreover, the TGI in test [7], in test [8] and in [9] was more than 25 µM throughout.
Consider `CN(C)c1ccc(/C=C2\Cc3ccccc3C2=O)cc1Br`, for which the TGI in test [1], in test [10], in test [2], in test [5], in [6] and in test [8] was more than 100 µM throughout. Moreover, the TGI in [9] is more than 100 µM.
On to `CS(=O)(=O)Nc1ccc(Nc2c3ccccc3nc3cc(Cl)ccc23)cc1`, for which the GI50 in test [1] was 0.857 µM; in [2], 1.37 µM; in [3], 0.843 µM; in test [4], 0.334 µM; in test [5] it was 1.62 µM; in test [6] it was 3.84 µM. The GI50 in test [7] is 1.18 µM; in test [8] it was 5.07 µM; in test [9], 0.828 µM. Also, the TGI was determined as 15.6 µM in test [1]; 14.2 µM in test [2]; 24.6 µM in [3]; 4.7 µM in [4]; 19 µM in test [5]; 21.7 µM in [6]. Also, the TGI in [7] was determined as 13.5 µM; in test [8], 18.7 µM; in [9], 13.5 µM.
Take `COc1cc(-c2nn(-c3cccc(NC(=O)c4cccc(C(F)(F)F)c4)c3)cc2-c2ccncc2)ccc1Cl`: the GI50 in test [1] was 2.45 µM; in test [2], 1.55 µM; in [3] it was 2.02 µM; in [4], 0.554 µM; in test [5] it was 1.83 µM; in [6], 2.28 µM. Besides, the values for the GI50 in test [7], in test [8] and in test [9] were 0.895 µM, 3.24 µM and 1.62 µM, respectively. For the same compound, the TGI in test [1] is more than 50 µM; in test [2], more than 50 µM; in test [3], more than 50 µM; in test [4] it was 3.12 µM; in [5] it was more than 50 µM; in test [6] it was more than 50 µM. Also, the TGI in [7] was 2.3 µM; in test [8] it was more than 50 µM; in test [9], more than 50 µM.
On to `COc1cc(/C=C/C(=O)c2c(-c3ccc(Cl)cc3)nc3sc(C)nn23)cc(OC)c1OC`, for which the GI50 in test [1] was 51.2 µM; in [2], 15.8 µM; in [3] it was 5.94 µM; in [4], 3.48 µM; in [5], 70.1 µM; in [6] it was 31.8 µM. The figures for the GI50 in [7], in test [8] and in test [9] were more than 100 µM, 27.1 µM and 17.1 µM, respectively. Moreover, the TGI in test [1] was more than 100 µM; in [2], more than 100 µM; in test [3], 40.6 µM; in test [4], 25.1 µM; in test [5], more than 100 µM; in test [6] it was more than 100 µM. For the same compound, the TGI in test [7], in test [8] and in test [9] was more than 100 µM throughout.
In the case of `c1csc(-c2[nH]nc3c2CCc2ccccc2-3)c1`, the GI50 is 21.3 µM in test [1]; 0.289 µM in test [2]; 20.5 µM in test [3]; 1.88 µM in test [4]; 19.4 µM in [5]; 2.12 µM in test [6]. In addition, the figures for the GI50 in test [7], in test [8] and in [9] were 12.9 µM, 0.862 µM and 11.6 µM, respectively. Also, the TGI is 51 µM in [1]; 18.6 µM in test [2]; 47.3 µM in test [3]; 20.4 µM in test [4]; 73 µM in test [5]; 37.3 µM in [6]. Further, the TGI was determined as 29 µM in test [7], 61.6 µM in test [8] and 26.3 µM in test [9].
Regarding `CC(=O)OC1CCC2(C)C(=CCC3C4CC(CN5CC5)C(=O)C4(C)CCC32)C1` (stereo not drawn), the GI50 in test [1] is 7.91 µM; in [2] it was 2.27 µM; in test [3] it was 4.12 µM; in test [4], 11.3 µM; in test [5] it was 4.23 µM; in test [6], 2.8 µM. Also, the GI50 is 13.5 µM in [7], 1.89 µM in [8] and 13.6 µM in [9]. Besides, the TGI came out at 20.9 µM in test [1]; 5.62 µM in [2]; 16.8 µM in [3]; 24.1 µM in [4]; 15.2 µM in [5]; 9.55 µM in test [6]. Moreover, the TGI in test [7] turned out to be 26.9 µM; in test [8] it was 3.82 µM; in test [9], 27.6 µM.
